This is an account of results in patent US6586443B1, “Method of treating multiple sclerosis” (priority 1986, dated 2003).

Assay [1] in a line: case report: low dose naltrexone in multiple sclerosis. Type of assay: in vivo, human. The conditions noted are these: person. Here is the method:
This gradually cleared over a two month period. […] This gradually cleared. An attack of transverse myelitis at the lower thoracic level occurred four months later, their third attack in eight months. As they were recovering from this attack, they started on naltrexone, 1.75 mg per day at bedtime. […] This attack involved weakness and numbness of the left arm.

In assay [2] the test system is genital herpes (herpes simplex virus (HSV) type No. 2). As to the kind of experiment: case report: low dose naltrexone in chronic genital herpes. The format is in vivo, human. As for the experimental part:
A person has had genital herpes for 13 years, experiencing a severe painful attack with several lesions for the 4-5 days preceding each menstrual period during most of that time. They were started on low dose naltrexone (1.75 mg per day at bedtime). […] Ten months later the dosage was increased to 2.75 mg/day also taken at bedtime. In the entire period of naltrexone treatment covering a number of months, they have had only two attacks each occurring 2-3 weeks after they ran out of naltrexone and interrupted the treatment temporarily.

Assay [3] deals with Mu and Delta opiate receptor sites. The conditions noted are these: generally rated; cited from earlier work.
For assay [4] the following is noted: recent press reports; cited from earlier work.

For `O=C1CC[C@@]2(O)[C@H]3Cc4ccc(O)c5c4[C@@]2(CCN3CC2CC2)[C@H]1O5` [naltrexone], the “multiple sclerosis attacks after start of naltrexone” value in assay [1] (1.75 mg per day at bedtime, three attacks in eight months before treatment) is on record as “only subsequent attack in the intervening period of many months occurred one year later, three weeks after they voluntarily discontinued naltrexone”. Besides, in assay [1] (low dose naltrexone resumed after voluntary discontinuation), the “multiple sclerosis attacks after resuming naltrexone” value is on record as “no attacks since”. Also, the “number of genital herpes attacks in the entire period of naltrexone treatment” value in assay [2] (1.75 then 2.75 mg/day at bedtime, each attack 2-3 weeks after treatment was temporarily interrupted) is given as “two”. Further, the “effect on genital herpes attacks after start of treatment” value in assay [2] (person, 1.75 mg per day at bedtime, oral) is listed as “attacks immediately stopped”. Moreover, the “Mu blocking action relative to Delta blocking action” value in assay [3] is given as “about ten”.
Turning to `Nc1nc2c(ncn2COCCO)c(=O)[nH]1` [acyclovir], in assay [4], the “effectiveness in treating CFS compared with placebo” value is on record as “no more effective than a placebo”.
